Data on 1 compound can be found in patent US8765953B2, “Compounds and methods for the treatment of pain and other diseases” (Aquilus Pharmaceuticals, Inc., priority 2008, dated 2014).

SMILES strings stand for the structures.

For data set [1], the system named is humans. Conditions: cited from earlier work.
The conditions of data set [2]: cited from earlier work.
Data set [3] relates to spinal nerve ligation (SNL) mouse model. As to the kind of experiment: Intraperitoneal (i.p.) SNL-mouse model of neuropathic pain, von Frey mechanical allodynia. The format is in vivo. The source says: To measure the neuropathic pain inhibiting affects of the MMP inhibitors of the present invention, the spinal nerve ligation (SNL) mouse model was run on a select number of compounds. This model which began with the work of Bennet and coworkers (Bennet, G. J. et al. Pain, 33, (1988), 87-107) and was optimized by Kim and Chung (Kim, S. H.; Chung, J. M. Pain, 50, (1992), 355-363) entails first, under magnification, the removal of one-third of the transverse process and then identifying and then dissecting free the L5 spinal nerve from the adjacent L4 spinal nerve in the mouse. The L5 spinal nerve is then tightly ligated using 6.0 silk suture. The nerve injury leads to hyperalgesia which manifests itself by enhanced responses to mechanical, heat and/or cooling stimuli. In this case, mechanical hyperalgesia is tested via Von Frey monofilaments in which filaments of varying thicknesses and bending force are individually applied to the plantar surface of the foot of the mouse. The threshold force necessary for paw withdrawal decreases dramatically after the nerve surgery. Potent pain inhibitors will reverse this affect resulting in greater force needing to be applied to cause the rodent paw to withdrawal.
Tactile Allodynia Test. Mechanical allodynia was measured using the calibrated von Frey filaments (Semmes-Weinstein monofilaments; Stoelting, Wood Dale, Ill., U.S.A.). The plantar surface of the left injured paw of each animal was tested as described by Chaplan et al. (Journal of Neuroscience Methods, 53, (1994), 55-63). The Fifty percent paw withdrawal threshold response was determined by sequentially increasing or decreasing the stimulus strength according to the “up-down method” of Dixon (Annual Review Pharmacology Toxicology, 20, (1980), 441-462). For mice, […] von Frey filaments were used, with approximately equal logarithmic incremental bending forces (von Frey number: 1.65, 2.36, 2.44, 2.83, 3.22, 3.61, 3.84, 4.08, and 4.17; equivalent to 0.005, 0.02, 0.03, 0.07, 0.17, 0.41, 0.69, 1.20, and 1.48 g force, respectively).
Prior to testing, each animal was placed in a suspended clear plastic chamber with a wire mesh bottom and acclimated for 15 minutes. Testing was initiated with the 0.07 g (handle marking of 2.83) applied perpendicularly to the plantar surface of the affected hind paw; each filament was applied with enough pressure to cause a buckle effect. The absence of a paw lifting/withdrawal response after 6 s prompted the use of the next higher weight filament. Paw withdrawal, indicating a positive response, prompted the use of a weaker filament. After the initial positive response (i.e., paw withdrawal), the testing continued for four additional measurements, and was used to calculate the response threshold. Four consecutive positive responses received a score of 0.001 g, and five consecutive negative responses (i.e., no paw withdrawal) received a score of 1.5 g.
Analyses for Tactile Allodynia Testing. The 50% paw withdrawal threshold was calculated (PWT; Luo and Calcutt, J. Pharmacology Experimental Therapeutics, 303(3), (2002), 1199-1205; Chaplan et al. Journal of Neuroscience Methods, 53, (1994), 55-63) using the formula: 10(Xf+κδ)/10,000 where Xf is the final von Frey filament used (log units), κ is a value that analyzes the response pattern (taken from the table published by Chaplan et al., 1994), and δ is the mean difference between stimuli (log units).
Except for the mode of administration, number of mice/group and the number of injections and amount of compound per injection, the rest of the study was done in the same manner (in regards to the surgeries and tactile allodynia testing and analysis) as Experiment 110. 3.2 mg of each of the MMP inhibitors #5 and #118 were dissolved in 320 microliters of DMSO. To the solution was then added 32 microliters of Tween 80, followed by 2850 microliters of phosphate buffered saline (PBS). This gave a final concentration of 10% DMSO, 1% Tween and 1 mg/ml compound. […]

Data set [4] is described as follows: In-vitro human microsomal stability. Format: in vitro ADME. Conditions: human microsomes, 1 microMolar compound, at T = 60 minutes. The method, then: (§1) Human and mouse microsomal stability was determined for select compounds following the method of Houston (Houston, J. B; Biochem. Pharmacol. 47, (1994),1469).
1 μM concentration of compound and separate human and mouse microsomes (0.3 mg/mL, BD bioscience) were used in the in-vitro assay. To ensure proper energy supply for microsomal degradation of compound, an energy regenerating system comprised of 100 mM potassium phosphate, 2 mM NADPH, 3 mM MgCl2, pH=7.4. and the microsomal protein is added to each sample and the resulting suspension is then incubated in duplicate for 60 min at 37° C. in a rotary shaker. A control is run for each test agent in duplicate omitting NADPH to detect NADPH-free degradation. At T=0 and T=60 min., an aliquot is removed from each experimental and control reaction and then mixed with an equal volume of ice-cold Stop Solution (consisting of 0.3% acetic acid in acetonitrile containing haloperidol and diclofenac as internal standards). […] The samples are then centrifuged to remove precipitated protein, and the supernatants are then analyzed by LC-MS/MS to determine the percentage of compound remaining. […] After separation on a C18 reverse phase HPLC column (Agilent, Waters, or equivalent) using an acetonitrile-water gradient system, peaks were analyzed by mass spectrometry (MS) using ESI ionization in MRM mode.

Data set [5] in a line: In-vitro mouse microsomal stability. Conditions: mouse microsomes, 1 microMolar compound, at T = 60 minutes. Format: in vitro ADME. The method, then:
as §1
1 μM concentration of compound and separate human and mouse microsomes (0.3 mg/mL, BD bioscience) were used in the in-vitro assay. To ensure proper energy supply for microsomal degradation of compound, an energy regenerating system comprised of 100 mM potassium phosphate, 2 mM NADPH, 3 mM MgCl2, pH=7.4. and the microsomal protein is added to each sample and the resulting suspension is then incubated in duplicate for 60 min at 37° C. in a rotary shaker. A control is run for each test agent in duplicate omitting NADPH to detect NADPH-free degradation. At T=0 and T=60 min., an aliquot is removed from each experimental and control reaction and then mixed with an equal volume of ice-cold Stop Solution (consisting of 0.3% acetic acid in acetonitrile containing haloperidol and diclofenac as internal standards). Stopped reactions are then incubated for at least ten minutes at −20° C., and an additional volume of water is then added. The samples are then centrifuged to remove precipitated protein, and the supernatants are then analyzed by LC-MS/MS to determine the percentage of compound remaining. The LC-MS/MS system used was an Agilent 6410 mass spectrometer coupled with an Agilent 1200 HPLC and a CTC PAL chilled autosampler, all controlled by MassHunter software (Agilent), or an ABI2000 mass spectrometer coupled with an Agilent 1100 HPLC and a CTC PAL chilled autosampler, all controlled by Analyst software (ABI). After separation on a C18 reverse phase HPLC column (Agilent, Waters, or equivalent) using an acetonitrile-water gradient system, peaks were analyzed by mass spectrometry (MS) using ESI ionization in MRM mode.

Where [6] appears, read: i.p. 100 μl/mouse daily (approx. 3.3 mg/Kg), day 1-5.

For the compound `Cc1ccc(C#Cc2ccc(S(=O)(=O)N[C@H](Cc3c[nH]c4ccccc34)C(=O)O)s2)cc1` [Compound 5, (R)-3-(1H-Indol-3-yl)-2-(5-p-tolylethynyl-thiophene-2-sulfonylamino)-propionic acid], the Musculoskeletal toxicities result in data set [1] (humans (S-3304: animals or man)) is “no evidence of musculoskeletal toxicities”. In data set [1] (humans), the “Adverse events in humans” value is “headaches, somnolence, vomiting, nausea and gastrointestinal pain”. In data set [2], the “Metabolites found in human blood” value is recorded as “formation of several hydroxylated metabolites”. Besides, in data set [3] (setting [6]), the “Paw withdrawal threshold, mean, Day 1” value is given as 0.078 grams; the “Paw withdrawal threshold, mean, Day 2” value is 0.117 grams; the “Paw withdrawal threshold, mean, Day 5” value came to 0.238 grams; the “Paw withdrawal threshold, mean, Day 6” value is recorded as 0.099 grams. Further, in data set [3] (setting [6]), the “Paw withdrawal threshold, mean, Day 7” value was 0.128 grams. Also, the “Paw withdrawal threshold, mean, Day 0 Postoperative Baseline” value in data set [3] (i.p. study, baseline before treatment) is 0.046 grams. In addition, the “Mean Remaining Parent with NADPH (%)” value in data set [4] (with NADPH) was 86%. Besides, the “Mean Remaining Parent without NADPH (%)” value in data set [4] (without NADPH (control)) stood at 89%. In data set [5] (with NADPH), the “% Mean Remaining Parent with NADPH (%)” value is 83%. Besides, the “% Mean Remaining Parent without NADPH (%)” value in data set [5] (without NADPH (control)) was found to be 88%.
